Structures can show the parent of a compound that is named as a salt. Where two headings read alike, the source gives them in different places.
Assays:
[1] = biological target: human BACE-1 (Homo sapiens (Human), UniProt P56817); assay: Test 1: Inhibition of human BACE-1
[2] = biological target: human BACE-2 (Homo sapiens (Human), UniProt Q9Y5Z0); assay: Test 2: Inhibition of human BACE-2; type: biochemical
Text: Test 2: Inhibition of Human BACE-2

[3] = read-out: BACE-1 IC50, mean IC50, recombinant BACE-1, acetate buffer pH 4.5, fluorescence-quenched peptide substrate
[4] = mean IC50, recombinant BACE-2, acetate buffer pH 4.5, fluorescence-quenched peptide substrate, read-out: BACE-2 IC50

Sequence of human BACE-1 (P56817 46-457): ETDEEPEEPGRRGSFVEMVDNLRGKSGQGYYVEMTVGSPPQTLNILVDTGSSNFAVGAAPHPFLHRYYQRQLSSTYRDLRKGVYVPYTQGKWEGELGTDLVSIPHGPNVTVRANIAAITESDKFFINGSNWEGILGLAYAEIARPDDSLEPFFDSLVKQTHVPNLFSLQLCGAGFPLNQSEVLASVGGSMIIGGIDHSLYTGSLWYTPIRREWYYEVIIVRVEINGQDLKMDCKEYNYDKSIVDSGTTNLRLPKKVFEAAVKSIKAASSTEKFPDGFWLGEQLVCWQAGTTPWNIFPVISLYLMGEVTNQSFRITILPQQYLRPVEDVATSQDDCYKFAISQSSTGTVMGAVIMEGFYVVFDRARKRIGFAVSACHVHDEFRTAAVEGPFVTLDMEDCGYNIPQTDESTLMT
Sequence of human BACE-2 (Q9Y5Z0 63-473): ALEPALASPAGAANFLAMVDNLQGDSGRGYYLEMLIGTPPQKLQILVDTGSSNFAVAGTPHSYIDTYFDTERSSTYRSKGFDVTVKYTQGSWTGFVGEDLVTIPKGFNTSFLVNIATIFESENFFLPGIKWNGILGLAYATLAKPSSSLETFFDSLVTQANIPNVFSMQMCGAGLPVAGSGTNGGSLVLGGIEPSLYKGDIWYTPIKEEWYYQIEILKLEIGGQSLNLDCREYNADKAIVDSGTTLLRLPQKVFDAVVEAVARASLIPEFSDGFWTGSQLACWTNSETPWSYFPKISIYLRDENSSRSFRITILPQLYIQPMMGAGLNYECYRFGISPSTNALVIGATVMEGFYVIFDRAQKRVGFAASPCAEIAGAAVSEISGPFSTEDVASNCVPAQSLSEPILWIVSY

Row | IC50 [1, 3] | IC50 [2, 4] | Compound | IC50 [2] | IC50 [1]
1 | 0.039 µM | – | C[C@@]1(c2cccc(NC(=O)c3ccc(C#N)cn3)n2)CO[C@@](C)(C(F)(F)F)C(N)=N1 [Example 10, 5-Cyano-pyridine-2-carboxylic acid [6-((3R,6R)-5-amino-3,6-dimethyl-6-trifluoromethyl-3,6-dihydro-2H-[1,4]oxazin-3-yl)-pyridin-2-yl]-amide] | – | –
2 | 0.01 µM | 0.041 µM | C[C@@]1(c2cccc(NC(=O)c3ncc(C#N)cc3Cl)n2)CO[C@@](C)(C(F)(F)F)C(N)=N1 [Example 20, 3-Chloro-5-cyano-pyridine-2-carboxylic acid [6-((3R,6R)-5-amino-3,6-dimethyl-6-trifluoromethyl-3,6-dihydro-2H-[1,4]oxazin-3-yl)-pyridin-2-yl]-amide] | – | –
3 | 0.042 µM | 0.17 µM | N#Cc1cnc(C(=O)Nc2ccc(F)c([C@]3(C(F)F)COCC(N)=N3)n2)c(Cl)c1 [Example 40, 3-Chloro-5-cyano-pyridine-2-carboxylic acid [6-((R)-5-amino-3-difluoromethyl-3,6-dihydro-2H-[1,4]oxazin-3-yl)-5-fluoro-pyridin-2-yl]-amide] | – | –
4 | 1.5 µM | 6.5 µM | Cc1cc(C#N)cnc1C(=O)Nc1ccc(F)c([C@@]2(C(F)F)COCC(N)=N2)n1 [Example 39, 5-Cyano-3-methyl-pyridine-2-carboxylic acid [6-((S)-5-amino-3-difluoromethyl-3,6-dihydro-2H-[1,4]oxazin-3-yl)-5-fluoro-pyridin-2-yl]-amide] | – | –
5 | 0.033 µM | 0.16 µM | Cc1cc(C#N)cnc1C(=O)Nc1ccc(F)c([C@]2(C(F)F)COCC(N)=N2)n1 [Example 38, 5-Cyano-3-methyl-pyridine-2-carboxylic acid [6-((R)-5-amino-3-difluoromethyl-3,6-dihydro-2H-[1,4]oxazin-3-yl)-5-fluoro-pyridin-2-yl]-amide] | – | –
6 | 0.01 µM | 0.005 µM | C[C@@]1(c2nc(NC(=O)c3nn(C(F)F)cc3Cl)ccc2F)CO[C@@](C)(C(F)(F)F)C(N)=N1 [Example 46, 4-Chloro-1-difluoromethyl-1H-pyrazole-3-carboxylic acid [6-((3R,6R)-5-amino-3,6-dimethyl-6-trifluoromethyl-3,6-dihydro-2H-[1,4]oxazin-3-yl)-5-fluoro-pyridin-2-yl]-amide] | – | –
7 | – | – | [2H]c1nc(C(=O)Nc2cc(C3(CF)COCC(N)=N3)ccn2)c(C([2H])([2H])[2H])c([2H])c1Cl (centres unmarked) [Example 13, 5-{2-[(5-Chloro-4,6-dideutero-3-trideuteromethyl-pyridine-2-carbonyl)-amino]-pyridin-4-yl}-5-fluoromethyl-5,6-dihydro-2H-[1,4]oxazin-3-yl-ammonium acetate] | 1.5 µM | –
8 | 0.41 µM | 0.28 µM | C[C@@]1(c2cc(NC(=O)c3ncc(OC(F)F)cc3Cl)ncc2F)CO[C@@](C)(C(F)(F)F)C(N)=N1 [Example 36, 3-Chloro-5-difluoromethoxy-pyridine-2-carboxylic acid [4-((3R,6R)-5-amino-3,6-dimethyl-6-trifluoromethyl-3,6-dihydro-2H-[1,4]oxazin-3-yl)-5-fluoro-pyridin-2-yl]-amide] | – | –
9 | 0.043 µM | 0.082 µM | C[C@@]1(c2cccc(NC(=O)c3ncc(C#N)cc3N)n2)CO[C@@](C)(C(F)(F)F)C(N)=N1 [Example 19, 3-Amino-5-cyano-pyridine-2-carboxylic acid [6-((3R,6R)-5-amino-3,6-dimethyl-6-trifluoromethyl-3,6-dihydro-2H-[1,4]oxazin-3-yl)-pyridin-2-yl]-amide] | – | –
10 | – | – | Cc1cc(C(N)=S)cnc1C(=O)Nc1cc(C2(CF)COCC(N)=N2)ccn1 (centres unmarked) [Example 15, 5-Fluoromethyl-5-{2-[(3-methyl-5-thiocarbamoyl-pyridine-2-carbonyl)-amino]-pyridin-4-yl}-5,6-dihydro-2H-[1,4]oxazin-3-yl-ammonium trifluoro-acetate] | > 10 µM | > 10 µM
11 | 0.005 µM | 0.02 µM | Cc1cc(C#N)cnc1C(=O)Nc1cccc([C@]2(C)CO[C@@](C)(C(F)(F)F)C(N)=N2)n1 [Example 8, 5-Cyano-3-methyl-pyridine-2-carboxylic acid [6-((3R,6R)-5-amino-3,6-dimethyl-6-trifluoro-methyl-3,6-dihydro-2H-[1,4]oxazin-3-yl)-pyridin-2-yl]-amide] | – | –
12 | – | – | [2H]c1nc(C(=O)Nc2cccc(C3(CF)COCC(N)=N3)n2)c(C([2H])([2H])[2H])c([2H])c1Cl (centres unmarked) [Example 6, 5-{6-[(4,6-Dideutero-5-chloro-3-trideuteromethyl-pyridine-2-carbonyl)-amino]-pyridin-2-yl}-5-fluoromethyl-5,6-dihydro-2H-[1,4]oxazin-3-yl-ammonium trifluoro acetate] | 0.24 µM | 0.55 µM
13 | 0.15 µM | 0.12 µM | C[C@@]1(c2cc(NC(=O)c3ncc(C#N)cc3Cl)ncc2F)CO[C@@](C)(C(F)(F)F)C(N)=N1 [Example 35, 3-Chloro-5-cyano-pyridine-2-carboxylic acid [4-((3R,6R)-5-amino-3,6-dimethyl-6-trifluoromethyl-3,6-dihydro-2H-[1,4]oxazin-3-yl)-5-fluoro-pyridin-2-yl]-amide] | – | –
14 | 0.026 µM | 0.024 µM | Cc1cc(OC(F)F)cnc1C(=O)Nc1ccc(F)c([C@]2(C)CO[C@@](C)(C(F)(F)F)C(N)=N2)n1 [Example 29, 5-Difluoromethoxy-3-methyl-pyridine-2-carboxylic acid [6-((3R,6R)-5-amino-3,6-dimethyl-6-trifluoromethyl-3,6-dihydro-2H-[1,4]oxazin-3-yl)-5-fluoro-pyridin-2-yl]amide] | – | –
15 | 0.39 µM | 0.26 µM | C[C@@]1(c2cccc(NC(=O)c3ccc(Br)cn3)n2)COCC(N)=N1 [Example 1, 5-Bromo-pyridine-2-carboxylic acid [6-((R)-5-amino-3-methyl-3,6-dihydro-2H-[1,4]-oxazin-3-yl)-pyridin-2-yl]-amide] | – | –
16 | 0.14 µM | 0.13 µM | NC1=NC(CF)(c2cc(NC(=O)c3ccc(Br)cn3)cnc2Cl)COC1 (centres unmarked) [Example 18, 5-Bromo-pyridine-2-carboxylic acid [5-(5-amino-3-fluoromethyl-3,6-dihydro-2H-[1,4]oxazin-3-yl)-6-chloro-pyridin-3-yl]-amide hydrochloride] | – | –
17 | 0.79 µM | 0.36 µM | CC1(c2cccc(NC(=O)c3ccc(Br)cn3)n2)COCC(N)=N1 (racemic) [Example 2, 5-Bromo-pyridine-2-carboxylic acid [6-(5-amino-3-methyl-3,6-dihydro-2H-[1,4]-oxazin-3-yl)-pyridin-2-yl]-amide] | – | –
18 | – | – | [2H]c1nc(C(=O)Nc2cccc([C@]3(C)CO[C@@](C)(C(F)(F)F)C(N)=N3)n2)c(C([2H])([2H])[2H])c([2H])c1Cl [Example 21, 5-Chloro-4,6-dideuterio-3-trideuteriomethyl-pyridine-2-carboxylic acid [6-((3R,6R)-5-amino-3,6-dimethyl-6-trifluoromethyl-3,6-dihydro-2H-[1,4]oxazin-3-yl)-pyridin-2-yl]-amide] | 0.008 µM | 0.031 µM
19 | 6.2 µM | – | C[C@]1(c2cccc(NC(=O)c3ccc(C#N)cn3)n2)CO[C@@](C)(C(F)(F)F)C(N)=N1 [Example 9, 5-Cyano-pyridine-2-carboxylic acid [6-((3S,6R)-5-amino-3,6-dimethyl-6-trifluoromethyl-3,6-dihydro-2H-[1,4]oxazin-3-yl)-pyridin-2-yl]-amide hydrochloride] | – | –

Row | Compound | IC50 [1, 3] | IC50 [2, 4] | IC50 [2] | IC50 [1]
20 | NC1=NC(CF)(c2ccnc(NC(=O)c3ccc(Cl)cn3)c2)COC1 (centres unmarked) [Example 14, 5-{2-[(5-Chloro-pyridine-2-carbonyl)-amino]-pyridin-4-yl}-5-fluoromethyl-5,6-dihydro-2H-[1,4]oxazin-3-yl-ammonium trifluoro-acetate] | 8.1 µM | 4.8 µM | – | –
21 | COCCn1ccc2nc(C(=O)Nc3ccc(F)c([C@]4(C)CO[C@@](C)(C(F)(F)F)C(N)=N4)n3)c(N)nc21 [Example 43, 3-Amino-5-(2-methoxy-ethyl)-5H-pyrrolo[2,3-b]pyrazine-2-carboxylic acid [6-((3R,6R)-5-amino-3,6-dimethyl-6-trifluoromethyl-3,6-dihydro-2H-[1,4]oxazin-3-yl)-5-fluoro-pyridin-2-yl]amide] | 1.2 µM | – | > 10 µM | –
22 | C[C@@]1(c2cccc(NC(=O)c3ncc(OCC(F)(F)F)nc3N)n2)CO[C@@](C)(C(F)(F)F)C(N)=N1 [Example 23, 3-Amino-5-(2,2,2-trifluoro-ethoxy)-pyrazine-2-carboxylic acid [6-((3R,6R)-5-amino-3,6-dimethyl-6-trifluoromethyl-3,6-dihydro-2H-[1,4]oxazin-3-yl)-pyridin-2-yl]-amide] | 1.2 µM | > 10 µM | – | –
23 | NC(=S)c1ccc(C(=O)Nc2cccc(C3(CF)COCC(N)=N3)n2)nc1 (centres unmarked) [Example 7, 5-{6-[(5-Thiocarbamoyl-pyridine-2-carbonyl)-amino]-pyridin-2-yl}-5-fluoromethyl-5,6-dihydro-2H-[1,4]oxazin-3-yl-ammonium trifluoro-acetate] | 2.1 µM | 8.7 µM | – | –
24 | COCCn1ccc2nc(C(=O)Nc3ccc(F)c([C@]4(C)CO[C@@](C)(C(F)(F)F)C(N)=N4)n3)c(Cl)cc21 [Example 48, 6-Chloro-1-(2-methoxy-ethyl)-1H-pyrrolo[3,2-b]pyridine-5-carboxylic acid [6-((3R,6R)-5-amino-3,6-dimethyl-6-trifluoromethyl-3,6-dihydro-2H-[1,4]oxazin-3-yl)-5-fluoro-pyridin-2-yl]-amide] | 7.3 µM | – | > 10 µM | –
25 | C[C@@]1(c2nc(NC(=O)c3nc4ccn(CC(F)F)c4cc3Cl)ccc2F)CO[C@@](C)(C(F)(F)F)C(N)=N1 [Example 47, 6-Chloro-1-(2,2-difluoro-ethyl)-1H-pyrrolo[3,2-b]pyridine-5-carboxylic acid [6-((3R,6R)-5-amino-3,6-dimethyl-6-trifluoromethyl-3,6-dihydro-2H-[1,4]oxazin-3-yl)-5-fluoro-pyridin-2-yl]-amide] | – | 5.4 µM | – | > 10 µM
